≈ marks a conversion by molar mass, not a printed value. Structures can show the parent of a compound that is named as a salt. Values belong to the compound of their own block, whether it stands above or below them.
Key:
Type in all cases: physicochemical
[1] = Bulk and tap density and flow properties (Carr's Index, Hausner's Ratio)
Experimental: Needle-like particle shapes have poor powder flow and low densities. […] Reduced drug loadings (dilution of the poor flow component) improved flow characteristics of the resultant blend.
The 5 formulations covered drug loadings of 1.8-23.0% and 1-25 mg strengths. The bulk and tap densities for each formulation are included in Table 30.
Flow property scales for Carr's (Compressibility) Index and Hausner's Ratio are described in Table 37. The flow of the blends was assessed as very poor to passible.

[2] = Solubility study (water, SGF, SIF, preclinical vehicle, bio-relevant media); conditions: for Solubility, Concentration: at 24 hours
Experimental: (§1) Solubility Study: Compound 1 free base pKa was determined to be 5.14. […] Solubility in the preclinical formulation, 0.5% CMC/0.25% Tween 80, was determined to be 0.18 mg/ml at pH 8.1.

pKa determination = experiment: pKa determination
Experimental: as §1

[3] = Solution and suspension stability; conditions: 37° C.
Experimental: The solution stability of Compound 1 free base in water, SGF (pH 1.3), SIF (pH 7.5), and 0.1N NaOH with and without light protection at 37° C. was tested.

[4] = Solid state chemical and physical stability of free base monohydrate
Experimental: Chemical Stability Study: Solid state stability of Compound 1 free base monohydrate was evaluated at 80° C. for 2 weeks and 40° C./75% RH, 50° C./75% RH and 60° C. for up to 5 weeks.
This dehydrate form converted back to monohydrate immediately when samples were exposed to room temperature and RH>30%. If RH is in the range of 5-30%, the dehydrate form may take 1-3 days to convert back to monohydrate.

[5] = Dissolution of drug in capsule in 0.01N HCl and 0.001N HCl at 37° C.; conditions: for Compound 1 released: 125 mg capsule, 37° C., 60 minutes
Experimental: To assess the feasibility of using Compound 1 in a capsule to support FIH study, a dissolution study with a capsule containing 125 mg Compound 1 free base monohydrate was performed in the media of 0.01N HCl and 0.001N HCl at 37° C. Capsule shell shrinkage was observed. […] Blend in capsule or other formulation approaches may be necessary.
A dissolution study for citrate salt in a capsule in 0.01N HCl was also carried out.

[6] = Tablet dissolution in pH 2 phosphate buffer and pH 5 phosphate buffer with 0.1% sodium laureth sulfate; conditions: tablets, pH 5 phosphate buffer and 0.1% sodium laureth sulfate
[7] = Solubility of Compound 1 citrate in pH 6.5 phosphate buffer with SLS
Experimental: Solubility of Compound 1 was determined in various percentages of sodium lauryl sulfate (SLS). 0.03% SLS was selected as the media for dissolution condition 3. Samples were filtered using a 0.2 μm nylon syringe filter, and analyzed by UPLC-UV utilizing the method parameters listed in Table 9.

SMILES: C[C@]1(C(N)=O)CC[C@@H](n2c(Nc3c(Cl)cc(Cl)cc3Cl)nc3cnc(N[C@@H]4CCOC[C@H]4F)nc32)CC1 (relative stereo) [Compound 1 free base, cis-4-[2-{[(3S,4R)-3-fluorooxan-4-yl]amino}-8-(2,4,6-trichloroanilino)-9H-purin-9-yl]-1-methylcyclohexane-1-carboxamide]
pKa (pKa determination): 5.14
solution stability, remaining ([3]; 0.1N NaOH without light protection, day 1): 88%
solution stability, remaining ([3]; 0.1N NaOH without light protection, day 4): 61%
solution stability, remaining ([3]; water, SGF (pH 1.3), SIF (pH 7.5), 0.1N NaOH, 4 days, all except 0.1N NaOH without light protection): > 95%

SMILES: C[C@]1(C(N)=O)CC[C@@H](n2c(Nc3c(Cl)cc(Cl)cc3Cl)nc3cnc(N[C@@H]4CCOC[C@H]4F)nc32)CC1 (relative stereo) [Compound 1 free base monohydrate, cis-4-[2-{[(3S,4R)-3-fluorooxan-4-yl]amino}-8-(2,4,6-trichloroanilino)-9H-purin-9-yl]-1-methylcyclohexane-1-carboxamide]
Solubility, Concentration ([2]; FaSSGF): 2.81 mg/mL
Solubility, Concentration ([2]; FaSSIF): 0.26 mg/mL
Solubility, Concentration ([2]; FeSSGF): 0.004 mg/mL
Solubility, Concentration ([2]; FeSSIF): 2.07 mg/mL
pH @ 24 hr ([2]; solubility sample in FaSSGF): 1.84
pH @ 24 hr ([2]; solubility sample in FaSSIF): 6.48
pH @ 24 hr ([2]; solubility sample in FeSSGF): 6.31
pH @ 24 hr ([2]; solubility sample in FeSSIF): 4.94
solid state chemical stability ([4]; 80° C. for 2 weeks, 40° C./75% RH, 50° C./75% RH and 60° C. up to 5 weeks): chemically relatively stable
time for the dehydrate form to convert back to monohydrate ([4]; RH in the range of 5-30%): 1 to 3 days
physical stability ([4]; heated at 60 and 80° C.): lost water and converted to a dehydrate form
Compound 1 released ([5]; 0.001N HCl): 10%
Compound 1 released ([5]; 0.01N HCl): About 80%

SMILES: C[C@]1(C(N)=O)CC[C@@H](n2c(Nc3c(Cl)cc(Cl)cc3Cl)nc3cnc(N[C@@H]4CCOC[C@H]4F)nc32)CC1 (relative stereo) [Compound 1 citrate, cis-4-[2-{[(3S,4R)-3-fluorooxan-4-yl]amino}-8-(2,4,6-trichloroanilino)-9H-purin-9-yl]-1-methylcyclohexane-1-carboxamide]
solubility ([7]; 0.01% SLS): 0.000 mg salt/mL
solubility ([7]; 0.02% SLS): 0.001 mg salt/mL
solubility ([7]; 0.03% SLS): 0.054 mg salt/mL
solubility ([7]; 0.05% SLS): 0.336 mg salt/mL
solubility ([7]; 0.1% SLS): 0.807 mg salt/mL
dissolution profile compared to freebase monohydrate ([5]; capsule in 0.01N HCl): better dissolution profile

Results, then the compound that gave them:

Bulk Density [1]: 0.2 g/mL
Tap Density [1]: 0.38 g/mL
solubility ([2]; 0.5% CMC/0.25% Tween 80 (preclinical formulation), aqueous with cosolvent or surfactant or cyclodextrin, preclinical formulation 0.5% CMC/0.25% Tween 80, pH 8.1, read-out: solubility): 180 µg/mL (≈ 315 µM)
solubility ([2]; pH 4.5, aqueous buffer, read-out: solubility): ~250 µg/mL (≈ 438 µM)
solubility ([2]; simulated gastric fluid (SGF), simulated gastric fluid, simulated gastric fluids (SGF) (pH 1.9), read-out: solubility): 3500 µg/mL (≈ 6130 µM)
solubility ([2]; simulated gastric fluid, low pH (0.1 N HCl), read-out: solubility): ~1700 µg/mL (≈ 2980 µM)
solubility ([2]; simulated intestinal fluid (SIF), pH 7.3, fassgf or other biorelevant, read-out: solubility): 2 µg/mL (≈ 3.5 µM)
solubility ([2]; simulated intestinal fluids (SIF) (pH 7.3)): 2 µg/mL (≈ 3.5 µM)
solubility ([2]; water (pH 8.1), read-out: solubility): 3 µg/mL (≈ 5.26 µM)
pKa (pKa determination): ~5.1
SMILES: C[C@]1(C(N)=O)CC[C@@H](n2c(Nc3c(Cl)cc(Cl)cc3Cl)nc3cnc(N[C@@H]4CCOC[C@H]4F)nc32)CC1 [Compound 1, cis-4-[2-{[(3S,4R)-3-fluorooxan-4-yl]amino}-8-(2,4,6-trichloroanilino)-9H-purin-9-yl]-1-methylcyclohexane-1-carboxamide]

dissolution compared with free base and citrate salt [6]: higher dissolution
SMILES: C[C@]1(C(N)=O)CC[C@@H](n2c(Nc3c(Cl)cc(Cl)cc3Cl)nc3cnc(N[C@@H]4CCOC[C@H]4F)nc32)CC1 (relative stereo) [HCl salt of Compound 1, cis-4-[2-{[(3S,4R)-3-fluorooxan-4-yl]amino}-8-(2,4,6-trichloroanilino)-9H-purin-9-yl]-1-methylcyclohexane-1-carboxamide]

Reference: US11701362B2, “Compositions and methods of use of cis-4-[2-{[(3S,4R)-3-fluorooxan-4-yl]amino}-8-(2,4,6-trichloroanilino)-9H-purin-9-yl]-1- methylcyclohexane-1-carboxamide” (Celgene Corporation, priority 2017, dated 2023)
